Laboratory results as given in US20250163119A1, “COMPOUNDS FOR THE TREATMENT OF DIABETES OR OBESITY” (Eli Lilly and Company, priority 2023, published 2025).
*1 amine or outer side, *2 acyl side, *3 side chain or, on linkers, in order; H or OH if unused. Where a SMILES comes first, the peptide text is derived from it. Side-chain parts run from the residue outwards. [ ]: non-standard residue; d: D form. The star is where a group is joined. C20 diacid = O=C(O)CCCCCCCCCCCCCCCCCCC(=O)*; γGlu = O=C(O)[C@H](CCC(=O)[*:2])N[*:1]; εLys = N[C@@H](CCCCN[*:1])C(=O)[*:2]; pGlu = O=C1CC[C@@H](C(=O)O)N1; αMeL = CC(C)C[C@](C)(N)C(=O)O; AEEA = NCCOCCOCC(=O)O; Aib = CC(C)(N)C(=O)O; Ahx = NCCCCCC(=O)O; βAla = NCCC(=O)O

Tests used:
human CRHR1 = target: T1, human CRHR1 (Homo sapiens, UniProt P34998); assay: Human CRHR1 cAMP assay (HTRF) in HEK293 cells stably expressing human CRHR1; assay type: cell-based; conditions: HEK293 cells overexpressing human CRHR1; relative EC50, maximum 66 nM human UCN1; mean ± SE; read-out: hCRHR1 cAMP EC50 (pM, ± SE)
T1 construct: expressed in transfected cells
T1 sequence (P34998 24-415): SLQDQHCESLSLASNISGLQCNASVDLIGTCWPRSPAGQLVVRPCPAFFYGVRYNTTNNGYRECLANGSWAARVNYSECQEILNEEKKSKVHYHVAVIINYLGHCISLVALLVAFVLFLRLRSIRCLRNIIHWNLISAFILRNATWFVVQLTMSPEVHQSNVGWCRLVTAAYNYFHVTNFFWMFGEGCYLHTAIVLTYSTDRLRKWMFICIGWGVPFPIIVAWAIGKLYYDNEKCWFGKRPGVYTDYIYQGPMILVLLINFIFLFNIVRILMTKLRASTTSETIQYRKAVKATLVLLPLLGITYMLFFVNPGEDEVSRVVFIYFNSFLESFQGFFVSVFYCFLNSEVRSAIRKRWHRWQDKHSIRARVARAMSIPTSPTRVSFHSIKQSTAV
Summary of the method: (§1)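 HEK293 cells stably expressing human CRHR1 (25,000/well) or CRHR2b (5,000/well) were treated with peptides in MEM with 0.1% casein, 5 mM HEPES pH 7.4 and 0.25 mM IBMX. Incubation was 1 h at 37 °C for CRHR1 and 30 min at room temperature for CRHR2. cAMP was measured by HTRF (665/620 nm) against a per-experiment cAMP standard curve.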

human CRHR2 = target: T2, human CRHR2 (Homo sapiens, UniProt Q13324); assay: Human CRHR2 cAMP assay (HTRF) in HEK293 cells stably expressing human CRHR2; assay type: cell-based; conditions: HEK293 cells overexpressing human CRHR2; relative EC50, maximum 10 nM human UCN2; mean ± SE; read-out: hCRHR2 cAMP EC50 (pM, ± SE)
T2 construct: expressed in transfected cells
T2 sequence (Q13324 1-438 isoform Q13324-2): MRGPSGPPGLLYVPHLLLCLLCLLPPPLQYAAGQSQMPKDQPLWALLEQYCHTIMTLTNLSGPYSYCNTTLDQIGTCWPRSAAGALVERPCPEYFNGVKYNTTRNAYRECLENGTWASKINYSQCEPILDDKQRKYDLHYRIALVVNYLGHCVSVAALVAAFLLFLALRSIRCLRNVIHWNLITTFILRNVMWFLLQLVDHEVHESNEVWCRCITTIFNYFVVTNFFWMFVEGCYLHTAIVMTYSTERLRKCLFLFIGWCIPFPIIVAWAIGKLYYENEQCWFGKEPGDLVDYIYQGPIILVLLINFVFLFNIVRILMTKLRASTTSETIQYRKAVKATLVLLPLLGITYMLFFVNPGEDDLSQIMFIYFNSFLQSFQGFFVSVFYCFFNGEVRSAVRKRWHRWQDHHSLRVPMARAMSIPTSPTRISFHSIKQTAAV
Summary of the method: as §1

EC50 (human CRHR1) [pM]	EC50 (human CRHR2) [pM]	Molecule
1.1e+06	4.6 ± 0.6	CC[C@H](C)[C@H](NC(C)=O)C(=O)N[C@H](C(=O)N[C@H](C(=O)N[C@@H](CO)C(=O)N[C@@](C)(CC(C)C)C(=O)N[C@@H](CC(=O)O)C(=O)N[C@@H](C(=O)N1CCC[C@H]1C(=O)N[C@H](C(=O)NCC(=O)N[C@@](C)(CC(C)C)C(=O)N[C@@H](CC(C)C)C(=O)N[C@@H](CCC(N)=O)C(=O)N[C@H](C(=O)N[C@@H](CCCCN)C(=O)N[C@@H](CC(C)C)C(=O)N[C@@H](CCC(=O)O)C(=O)N[C@@H](CCC(N)=O)C(=O)N[C@@H](CCC(=O)O)C(=O)N[C@@H](CCCNC(=N)N)C(=O)N[C@@H](C)C(=O)N[C@@H](CCC(=O)O)C(=O)N[C@@H](CCCCN)C(=O)N[C@@H](C)C(=O)N[C@@H](CCCNC(=N)N)C(=O)N[C@@H](CCC(N)=O)C(=O)N[C@@H](CCC(N)=O)C(=O)N[C@@H](C)C(=O)N[C@@H](CCCCNC(=O)COCCOCCNC(=O)CC[C@H](NC(=O)[C@@H](N)CCCCNC(=O)CCCCCCCCCCCCCCCCCCC(=O)O)C(=O)O)C(=O)N[C@@H](CCC(=O)O)C(=O)N[C@@H](CC(N)=O)C(=O)N[C@H](C(=O)N[C@@H](CCC(=O)O)C(=O)N[C@H](C(=O)N[C@@H](CC(C)C)C(=O)N[C@@H](C)C(=O)N[C@@H](CCC(N)=O)C(=O)N[C@H](C(N)=O)C(C)C)[C@@H](C)CC)[C@@H](C)O)[C@@H](C)CC)[C@@H](C)O)C(C)C)[C@@H](C)O)C(C)C [SEQ ID NO: 33, Ac-IVTS αMeL D (D-Val) PTG αMeL LQIKLEQERAEKARQQAK((2-[2-(2-Amino-ethoxy)-ethoxy]-acetyl)-γE-ϵK-CO-(CH2)18-CO2H)ENTEILAQV-NH2] (Ac-IVTS[αMeL]D[dV]PTG[αMeL]LQIKLEQERAEKARQQAK([AEEA-γGlu-εLys-C20 diacid])ENTEILAQV-NH2)
> 1e+07	5.4 ± 0.7	CC[C@H](C)[C@H](NC(C)=O)C(=O)N[C@H](C(=O)N[C@H](C(=O)N[C@@H](CO)C(=O)N[C@@](C)(CC(C)C)C(=O)N[C@@H](CC(=O)O)C(=O)N[C@@H](C(=O)N1CCC[C@H]1C(=O)N[C@H](C(=O)NCC(=O)N[C@@](C)(CC(C)C)C(=O)N[C@@H](CC(C)C)C(=O)N[C@@H](CCC(N)=O)C(=O)N[C@H](C(=O)N[C@@H](CCCCN)C(=O)N[C@@H](CC(C)C)C(=O)N[C@@H](CCC(=O)O)C(=O)N[C@@H](CCC(N)=O)C(=O)N[C@@H](CCC(=O)O)C(=O)N[C@@H](CCCNC(=N)N)C(=O)N[C@@H](C)C(=O)N[C@@H](CCC(=O)O)C(=O)N[C@@H](CCCCN)C(=O)N[C@@H](C)C(=O)N[C@@H](CCCNC(=N)N)C(=O)N[C@@H](CCC(N)=O)C(=O)N[C@@H](CCC(N)=O)C(=O)N[C@@H](C)C(=O)N[C@@H](CCCCNC(=O)COCCOCCNC(=O)[C@@H](N)CCCCNC(=O)CC[C@H](NC(=O)CCCCCCCCCCCCCCCCCCC(=O)O)C(=O)O)C(=O)N[C@@H](CCC(=O)O)C(=O)N[C@@H](CC(N)=O)C(=O)N[C@H](C(=O)N[C@@H](CCC(=O)O)C(=O)N[C@H](C(=O)N[C@@H](CC(C)C)C(=O)N[C@@H](C)C(=O)N[C@@H](CCC(N)=O)C(=O)N[C@H](C(N)=O)C(C)C)[C@@H](C)CC)[C@@H](C)O)[C@@H](C)CC)[C@@H](C)O)C(C)C)[C@@H](C)O)C(C)C [SEQ ID NO: 32, Ac-IVTS αMeL D (D-Val) PTG αMeL LQIKLEQERAEKARQQAK((2-[2-(2-Amino-ethoxy)-ethoxy]-acetyl)-ϵK-γE-CO-(CH2)18-CO2H)ENTEILAQV-NH2] (Ac-IVTS[αMeL]D[dV]PTG[αMeL]LQIKLEQERAEKARQQAK([AEEA-εLys-γGlu-C20 diacid])ENTEILAQV-NH2)
> 1e+07	8.3 ± 1.4	Ac-GSPSIVTS[αMeL]DVPT[Aib][αMeL]LQKILEQERAEKARQQAK([γGlu-Pro-Lys-Glu-Ahx-C20 diacid])EAAEILAQV-NH2 [SEQ ID NO: 11, Ac-GSPSIVTS αMeL DVPT Aib αMeL LQKILEQERAEKARQQAK(γE-PKE-Ahx-CO-(CH2)18-CO2H)EAAEILAQV-NH2]
> 1e+07	28.9 ± 1.2	[pGlu]GSPSGIVTS[αMeL]DVPT[Aib][αMeL]LQKILEQERAEKARQQAKEAAEILAQV-NH2 [SEQ ID NO: 23]
> 1e+07	10.6 ± 1.4	Ac-GSPSIVTS[αMeL]DVPT[Aib][αMeL]LQKILEQERAEKARQQAK([Gly-βAla-βAla-βAla-γGlu-C20 diacid])EAAEILAQV-NH2 [SEQ ID NO: 7, Ac-GSPSIVTS αMeL DVPT Aib αMeL LQKILEQERAEKARQQAK(G-(βA)3-γE-CO-(CH2)18-CO2H)EAAEILAQV-NH2]
2.3e+06	17.5 ± 2.2	Ac-PPPIVTS[αMeL]D[dV]PT[Aib][αMeL]LQKLLEQERAEKARQQAK([γGlu-AEEA-εLys-C20 diacid])EAAEILAQV-NH2 [SEQ ID NO: 47, Ac-PPPIVTS αMeL D (D-Val) PT Aib αMeL LQKLLEQERAEKARQQAK(γE-(2-[2-(2-Amino-ethoxy)-ethoxy]-acetyl)-ϵK-CO-(CH2)18-CO2H)EAAEILAQV-NH2]
> 1e+07	4.9 ± 0.7	CC[C@H](C)[C@H](NC(C)=O)C(=O)N[C@H](C(=O)N[C@H](C(=O)N[C@@H](CO)C(=O)N[C@@](C)(CC(C)C)C(=O)N[C@@H](CC(=O)O)C(=O)N[C@@H](C(=O)N1CCC[C@H]1C(=O)N[C@H](C(=O)NCC(=O)N[C@@](C)(CC(C)C)C(=O)N[C@@H](CC(C)C)C(=O)N[C@@H](CCC(N)=O)C(=O)N[C@H](C(=O)N[C@@H](CCCCN)C(=O)N[C@@H](CC(C)C)C(=O)N[C@@H](CCC(=O)O)C(=O)N[C@@H](CCC(N)=O)C(=O)N[C@@H](CCC(=O)O)C(=O)N[C@@H](CCCNC(=N)N)C(=O)N[C@@H](C)C(=O)N[C@@H](CCC(=O)O)C(=O)N[C@@H](CCCCN)C(=O)N[C@@H](C)C(=O)N[C@@H](CCCNC(=N)N)C(=O)N[C@@H](CCC(N)=O)C(=O)N[C@@H](CCC(N)=O)C(=O)N[C@@H](C)C(=O)N[C@@H](CCCCNC(=O)[C@@H](N)CCCCNC(=O)COCCOCCNC(=O)CC[C@H](NC(=O)CCCCCCCCCCCCCCCCCCC(=O)O)C(=O)O)C(=O)N[C@@H](CCC(=O)O)C(=O)N[C@@H](CC(N)=O)C(=O)N[C@H](C(=O)N[C@@H](CCC(=O)O)C(=O)N[C@H](C(=O)N[C@@H](CC(C)C)C(=O)N[C@@H](C)C(=O)N[C@@H](CCC(N)=O)C(=O)N[C@H](C(N)=O)C(C)C)[C@@H](C)CC)[C@@H](C)O)[C@@H](C)CC)[C@@H](C)O)C(C)C)[C@@H](C)O)C(C)C [SEQ ID NO: 34, Ac-IVTS αMeL D (D-Val) PTG αMeL LQIKLEQERAEKARQQAK(ϵK-(2-[2-(2-Amino-ethoxy)-ethoxy]-acetyl)-γE-CO-(CH2)18-CO2H)ENTEILAQV-NH2] (Ac-IVTS[αMeL]D[dV]PTG[αMeL]LQIKLEQERAEKARQQAK([εLys-AEEA-γGlu-C20 diacid])ENTEILAQV-NH2)
> 1e+07	7.9 ± 0.3	Ac-GSPSIVTS[αMeL]DVPT[Aib][αMeL]LQKILEQERAEKARQQAK([γGlu-Pro-Lys-Glu-εLys-C20 diacid])EAAEILAQV-NH2 [SEQ ID NO: 13, Ac-GSPSIVTS αMeL DVPT Aib αMeL LQKILEQERAEKARQQAK(γE-PKE-ϵK-CO-(CH2)18-CO2H)EAAEILAQV-NH2]
3.7e+06	7.3 ± 0.8	CC[C@H](C)[C@H](NC(C)=O)C(=O)N[C@H](C(=O)N[C@H](C(=O)N[C@@H](CO)C(=O)N[C@@](C)(CC(C)C)C(=O)N[C@@H](CC(=O)O)C(=O)N[C@@H](C(=O)N1CCC[C@H]1C(=O)N[C@H](C(=O)NCC(=O)N[C@@](C)(CC(C)C)C(=O)N[C@@H](CC(C)C)C(=O)N[C@@H](CCC(N)=O)C(=O)N[C@H](C(=O)N[C@@H](CCCCN)C(=O)N[C@@H](CC(C)C)C(=O)N[C@@H](CCC(=O)O)C(=O)N[C@@H](CCC(N)=O)C(=O)N[C@@H](CCC(=O)O)C(=O)N[C@@H](CCCNC(=N)N)C(=O)N[C@@H](C)C(=O)N[C@@H](CCC(=O)O)C(=O)N[C@@H](CCCCN)C(=O)N[C@@H](C)C(=O)N[C@@H](CCCNC(=N)N)C(=O)N[C@@H](CCC(N)=O)C(=O)N[C@@H](CCC(N)=O)C(=O)N[C@@H](C)C(=O)N[C@@H](CCCCNC(=O)CC[C@H](NC(=O)[C@@H](N)CCCCNC(=O)CC[C@H](NC(=O)CCCCCCCCCCCCCCCCCCC(=O)O)C(=O)O)C(=O)O)C(=O)N[C@@H](CCC(=O)O)C(=O)N[C@@H](CC(N)=O)C(=O)N[C@H](C(=O)N[C@@H](CCC(=O)O)C(=O)N[C@H](C(=O)N[C@@H](CC(C)C)C(=O)N[C@@H](C)C(=O)N[C@@H](CCC(N)=O)C(=O)N[C@H](C(N)=O)C(C)C)[C@@H](C)CC)[C@@H](C)O)[C@@H](C)CC)[C@@H](C)O)C(C)C)[C@@H](C)O)C(C)C [SEQ ID NO: 39, Ac-IVTS αMeL D (D-Val) PTG αMeL LQIKLEQERAEKARQQAK(γE-ϵK-γE-CO-(CH2)18-CO2H)ENTEILAQV-NH2] (Ac-IVTS[αMeL]D[dV]PTG[αMeL]LQIKLEQERAEKARQQAK([γGlu-εLys-γGlu-C20 diacid])ENTEILAQV-NH2)
